Measured values as given in ChEMBL document CHEMBL3588839, “Species differences in drug plasma protein binding” (Medchemcomm, 2014).

What was measured:
[1] = in vitro; conditions: human, plasma, pH 7.4
Description: Fraction unbound (%) in human plasma at pH 7.4 after 18 hrs by equilibrium dialysis

[2] = in vitro; conditions: rat, plasma, pH 7.4
Description: Fraction unbound (%) in rat plasma at pH 7.4 after 18 hrs by equilibrium dialysis

[3] = in vitro; conditions: dog, plasma, pH 7.4
Description: Fraction unbound (%) in dog plasma at pH 7.4 after 18 hrs by equilibrium dialysis

[4] = Fraction unbound (%) in mouse plasma at pH 7.4 after 18 hrs by equilibrium dialysis; type: ADME, cell-free
[5] = system: Plasma; assay: Fraction unbound (%) in rat plasma in phosphate buffer after 30 mins by liquid scintillation counting; type: ADME, cell-free; conditions: 0.5 h
[6] = system: Plasma; assay: Fraction unbound (%) in human plasma in phosphate buffer after 30 mins by liquid scintillation counting; type: ADME, cell-free; conditions: 0.5 h

Compound | fraction unbound at 18 h [1] | fraction unbound at 18 h [2] | fraction unbound at 18 h [3] | fraction unbound at 18 h [4] | Fu [5] [%] | Fu [6] [%]
CCCC(CCC)C(=O)O [VALPROIC ACID] | 0.052 | 0.88 |  |  |  | 
Cc1cc(O)c(C(=O)N[C@@H](C(=O)N[C@@H]2C(=O)N3C(C(=O)O)=C(CSc4nnnn4C)CS[C@H]23)c2ccc(O)cc2)cn1 [CEFPIRAMIDE] | 0.09 |  | 0.6 |  |  | 
CO[C@@]1(NC(=O)C2SC(=C(C(N)=O)C(=O)O)S2)C(=O)N2C(C(=O)O)=C(CSc3nnnn3C)CS[C@@H]21 (stereo partly specified) [CEFOTETAN] | 0.09 | 0.7 | 0.61 |  |  | 
CCCc1nn(C)c2c(=O)[nH]c(-c3cc(S(=O)(=O)N4CCN(C)CC4)ccc3OCC)nc12 | 0.064 |  | 0.26 |  |  | 
c1ccc(C(O[C@@H]2CCCN(CCc3ccc4c(c3)OCO4)C2)c2ccccc2)cc1 [ZAMIFENACIN] | 0.0001 | 0.002 |  |  |  | 
O=c1[nH]c2ccccc2n1C1CCN(CCCC(c2ccc(F)cc2)c2ccc(F)cc2)CC1 [PIMOZIDE] | 0.0016 |  | 0.0004 |  |  | 
CC[C@@H](c1ccccc1)c1c(O)c2ccccc2oc1=O | 0.007 |  |  | 0.11 |  | 
COc1cc([C@@H]2c3cc4c(cc3[C@@H](O[C@@H]3O[C@@H]5CO[C@@H](C)O[C@H]5[C@H](O)[C@H]3O)[C@H]3COC(=O)[C@H]23)OCO4)cc(OC)c1O [ETOPOSIDE] | 0.049 | 0.52 | 0.63 |  |  | 
CCOc1ccccc1OCCN[C@H](C)Cc1ccc(OC)c(S(N)(=O)=O)c1 [TAMSULOSIN] |  | 0.2 |  |  | 20 | 1
